Experimental data taken from patent US11434242B2, “Dopamine-b-hydroxylase inhibitors” (BIAL-PORTELA & Cª, S.A., priority 2017, dated 2022).

Molecular target: T1, Dopamine beta hydroxylase (Homo sapiens, UniProt P09172)
T1 construct: 125 μl of plasma; tissue Instituto Português do Sangue Transplantação; host or cells: human plasma from healthy donors
T1 sequence (P09172 40-617 limits assumed): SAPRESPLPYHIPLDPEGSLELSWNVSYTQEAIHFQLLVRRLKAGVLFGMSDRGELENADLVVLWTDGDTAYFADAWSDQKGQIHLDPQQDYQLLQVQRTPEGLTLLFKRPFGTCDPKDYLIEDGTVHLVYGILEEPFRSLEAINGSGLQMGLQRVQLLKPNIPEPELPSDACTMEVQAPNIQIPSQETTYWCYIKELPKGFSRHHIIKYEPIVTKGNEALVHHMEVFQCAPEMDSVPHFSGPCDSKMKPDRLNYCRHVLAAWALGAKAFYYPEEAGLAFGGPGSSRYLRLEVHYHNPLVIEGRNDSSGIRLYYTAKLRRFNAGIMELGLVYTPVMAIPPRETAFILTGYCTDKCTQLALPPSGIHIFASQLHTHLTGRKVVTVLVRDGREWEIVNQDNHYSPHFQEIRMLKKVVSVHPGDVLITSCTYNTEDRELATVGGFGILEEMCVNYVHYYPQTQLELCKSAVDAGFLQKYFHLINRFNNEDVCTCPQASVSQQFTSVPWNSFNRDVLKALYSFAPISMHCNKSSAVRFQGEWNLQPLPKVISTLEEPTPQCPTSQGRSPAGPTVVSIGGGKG
Test: Dopamine beta hydroxylase activity in human plasma
Format: biochemical
Settings: for Plasma (0.1 μM), activity in % of control: inhibitor 0.1 μM; for Plasma (1 μM), activity in % of control: inhibitor 1 μM; for Plasma (0.01 μM), activity in % of control: inhibitor 0.01 μM
Outline: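 Octopamine production from tyramine over 45 min at 37° C, measured photometrically at 330 nm after SCX extraction and periodate oxidation against an octopamine standard curve, indicates plasma DβH activity. Compounds tested at final 10, 100 and 1000 nM in human plasma, pH 5.0 cofactor buffer, 10 min preincubation; results as % of control.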

## O=C(Cc1[nH]c(=S)n2c1C[C@H](c1c(F)c(F)cc(F)c1F)C2)N1CCC2(CC1)OCCO2 [Example 87, (R)-1-(1,4-dioxa-8-azaspiro[4.5]decan-8-yl)-2-(6-(2,3,5,6-tetrafluorophenyl)-3-thioxo-2,5,6,7-tetrahydro-3H-pyrrolo[1,2-c]imidazol-1-yl)ethan-1-one]
  Plasma (0.1 μM), activity in % of control: 62.8 % of control
  Plasma (1 μM), activity in % of control: 13.8 % of control

## Fc1ccc(F)c([C@H]2Cc3c(CCN[C@@H]4CCOC4)[nH]c(=S)n3C2)c1F [Example 470]
  Plasma (0.01 μM), activity in % of control: 112.0 % of control
  Plasma (0.1 μM), activity in % of control: 79.4 % of control

## Cn1c(CC(=O)N2CCOCC2)c2n(c1=S)C[C@@H](c1c(F)cccc1F)C2 [Example 445, (R)-2-(6-(2,6-difluorophenyl)-2-methyl-3-thioxo-2,5,6,7-tetrahydro-3H-pyrrolo[1,2-c]imidazol-1-yl)-1-morpholinoethan-1-one]
  Plasma (0.01 μM), activity in % of control: 95.1 % of control
  Plasma (0.1 μM), activity in % of control: 73.7 % of control

## Cn1c(CC(=O)N[C@@H]2CCOC2)c2n(c1=S)C[C@@H](c1cc(Cl)ccc1F)C2 [Example 246, 2-((R)-6-(5-chloro-2-fluorophenyl)-2-methyl-3-thioxo-2,5,6,7-tetrahydro-3H-pyrrolo[1,2-c]imidazol-1-yl)-N—((R)-tetrahydrofuran-3-yl)acetamide]
  Plasma (0.01 μM), activity in % of control: 115.2 % of control
  Plasma (0.1 μM), activity in % of control: 80.3 % of control

## Cn1c(CC(=O)O)c2n(c1=S)C[C@H](c1c(F)ccc(F)c1F)C2 [Example 409, (S)-2-(2-methyl-3-thioxo-6-(2,3,6-trifluorophenyl)-2,5,6,7-tetrahydro-3H-pyrrolo[1,2-c]imidazol-1-yl)acetic Acid]
  Plasma (0.01 μM), activity in % of control: 112.6 % of control
  Plasma (0.1 μM), activity in % of control: 64.4 % of control

## Cl.Cn1c(CCN[C@@H]2CCCOC2)c2n(c1=S)C[C@@]1(c3cc(Br)ccc3F)C[C@@H]21 [Example 331, (5aS,6aR)-5a-(5-bromo-2-fluorophenyl)-2-methyl-1-(2-(((R)-tetrahydro-2H-pyran-3-yl)amino)ethyl)-5,5a,6,6a-tetrahydrocyclopropa[3,4]pyrrolo[1,2-c]imidazole-3(2H)-thione Hydrochloride]
  Plasma (0.01 μM), activity in % of control: 77.4 % of control
  Plasma (0.1 μM), activity in % of control: 50.2 % of control

## Cn1c(CC(=O)N2CCOCC2)c2n(c1=S)C[C@H](c1c(F)ccc(F)c1F)C2 [Example 411, (S)-2-(2-methyl-3-thioxo-6-(2,3,6-trifluorophenyl)-2,5,6,7-tetrahydro-3H-pyrrolo[1,2-c]imidazol-1-yl)-1-morpholinoethan-1-one]
  Plasma (0.01 μM), activity in % of control: 104.2 % of control
  Plasma (0.1 μM), activity in % of control: 78.6 % of control

## Cn1c(CC(=O)NCC2CCOCC2)c2n(c1=S)C[C@@H](c1c(F)c(F)cc(F)c1F)C2 [Example 397, (R)-2-(2-methyl-6-(2,3,5,6-tetrafluorophenyl)-3-thioxo-2,5,6,7-tetrahydro-3H-pyrrolo[1,2-c]imidazol-1-yl)-N-((tetrahydro-2H-pyran-4-yl)methyl)acetamide]
  Plasma (0.01 μM), activity in % of control: 79.9 % of control
  Plasma (0.1 μM), activity in % of control: 24.1 % of control

## O=C(Cc1[nH]c(=S)n2c1C[C@H](c1c(F)c(F)cc(F)c1F)C2)NC1CC1 [Example 78, (R)—N-cyclopropyl-2-(6-(2,3,5,6-tetrafluorophenyl)-3-thioxo-2,5,6,7-tetrahydro-3H-pyrrolo[1,2-c]imidazol-1-yl)acetamide]
  Plasma (0.1 μM), activity in % of control: 77.3 % of control
  Plasma (1 μM), activity in % of control: 24.4 % of control

## O=C(CCc1[nH]c(=S)n2c1C[C@H](c1c(F)c(F)cc(F)c1F)C2)N1CCCCC1 [Example 207, (R)-1-(piperidin-1-yl)-3-(6-(2,3,5,6-tetrafluorophenyl)-3-thioxo-2,5,6,7-tetrahydro-3H-pyrrolo[1,2-c]imidazol-1-yl)propan-1-one]
  Plasma (0.01 μM), activity in % of control: 76.6 % of control
  Plasma (0.1 μM), activity in % of control: 30.2 % of control

## CS(=O)(=O)NC(=O)Cc1[nH]c(=S)n2c1C[C@H](c1c(F)c(F)cc(F)c1F)C2 [Example 23, (R)—N-(methylsulfonyl)-2-(6-(2,3,5,6-tetrafluorophenyl)-3-thioxo-3,5,6,7-tetrahydro-2H-pyrrolo[1,2-c]imidazol-1-yl)acetamide]
  Plasma (0.1 μM), activity in % of control: 56.6 % of control
  Plasma (1 μM), activity in % of control: 8.8 % of control

## O=C(O)Cc1[nH]c(=S)n2c1C[C@@H](c1c(F)ccc(Cl)c1F)C2 [Example 407, (S)-2-(6-(3-chloro-2,6-difluorophenyl)-3-thioxo-2,5,6,7-tetrahydro-3H-pyrrolo[1,2-c]imidazol-1-yl)acetic acid]
  Plasma (0.01 μM), activity in % of control: 102.6 % of control
  Plasma (0.1 μM), activity in % of control: 42.3 % of control

## Cn1c(CC(=O)O)c2n(c1=S)C[C@@]1(c3cc(Cl)ccc3F)C[C@@H]21 [Example 276, 2-((5aS,6aR)-5a-(5-chloro-2-fluorophenyl)-2-methyl-3-thioxo-2,3,5,5a,6,6a-hexahydrocyclopropa[3,4]pyrrolo[1,2-c]imidazol-1-yl)acetic Acid]
  Plasma (0.01 μM), activity in % of control: 83.3 % of control
  Plasma (0.1 μM), activity in % of control: 33.3 % of control

## Cn1c(CC(N)=O)c2n(c1=S)C[C@@]1(c3cc(Cl)ccc3F)C[C@@H]21 [Example 282, 2-((5aS,6aR)-5a-(5-chloro-2-fluorophenyl)-2-methyl-3-thioxo-2,3,5,5a,6,6a-hexahydrocyclopropa[3,4]pyrrolo[1,2-c]imidazol-1-yl)acetamide]
  Plasma (0.01 μM), activity in % of control: 99.6 % of control
  Plasma (0.1 μM), activity in % of control: 75.4 % of control

## Cn1c(CCC(=O)NCC#N)c2n(c1=S)C[C@@H](c1c(F)ccc(F)c1F)C2 [Example 270, (R)—N-(cyanomethyl)-3-(2-methyl-3-thioxo-6-(2,3,6-trifluorophenyl)-2,5,6,7-tetrahydro-3H-pyrrolo[1,2-c]imidazol-1-yl)propanamide]
  Plasma (0.01 μM), activity in % of control: 88.1 % of control
  Plasma (0.1 μM), activity in % of control: 53.8 % of control

## Cn1c(CC(=O)O)c2n(c1=S)C[C@H](c1c(F)ccc(Cl)c1F)C2 [Example 424, (S)-2-(6-(3-chloro-2,6-difluorophenyl)-2-methyl-3-thioxo-2,5,6,7-tetrahydro-3H-pyrrolo[1,2-c]imidazol-1-yl)acetic acid]
  Plasma (0.01 μM), activity in % of control: 59.5 % of control
  Plasma (0.1 μM), activity in % of control: 20.6 % of control

## Cn1c(CC(=O)N[C@H]2CCOC2)c2n(c1=S)C[C@H](c1c(F)ccc(F)c1F)C2 [Example 417, 2-((S)-2-methyl-3-thioxo-6-(2,3,6-trifluorophenyl)-2,5,6,7-tetrahydro-3H-pyrrolo[1,2-c]imidazol-1-yl)-N—((S)-tetrahydrofuran-3-yl)acetamide]
  Plasma (0.01 μM), activity in % of control: 87.7 % of control
  Plasma (0.1 μM), activity in % of control: 60.5 % of control

## Cl.Cn1c(CC(=O)NCc2cnccn2)c2n(c1=S)C[C@@]1(c3cc(Cl)ccc3F)C[C@@H]21 [Example 335, 2-((5aS,6aR)-5a-(5-chloro-2-fluorophenyl)-2-methyl-3-thioxo-2,3,5,5a,6,6a-hexahydrocyclopropa[3,4]pyrrolo[1,2-c]imidazol-1-yl)-N-(pyrazin-2-ylmethyl)acetamide Hydrochloride]
  Plasma (0.01 μM), activity in % of control: 44.9 % of control
  Plasma (0.1 μM), activity in % of control: 8.7 % of control
